The text below walks through data of patent US20140194531A1, “HYDROXYTYROSOL BENEFITS MITOCHONDRIA” (DSM IP Assets B.V., priority 2008, published 2014).

One assay has as its system PGC-1α. As to the kind of experiment: PGC-1α protein level in adipocytes (Western blot). It is filed as cell-based, murine. The note with it: 3T3-L1 adipocytes, 1.0 μM, maximum, p<0.05 vs. control. As for the experimental part:
Murine 3T3-L1 pre-adipocytes (American Type Culture Collection) were cultured in Dulbecco's Modified Eagle's Medium (DMEM) supplemented with 10% fetal bovine serum and allowed to reach confluence. Differentiation of pre-adipocytes was initiated with 1 μM insulin, 0.25 μM dexamethasone and 0.5 mM 3-isobutyl-1-methylxanthine in DMEM, supplemented with 10% fetal bovine serum. After 48 h, the culture medium was replaced with DMEM supplemented with 10% fetal bovine serum and 1 μM insulin. The culture medium was changed every other day with DMEM containing 10% fetal bovine serum. […] After treatment, cells were washed twice with ice-cold PBS, lysed in sample buffer (62.5 mM Tris-Cl pH 6.8, 2% SDS, 5 mM DTT) at room temperature and vortexed. Cell lysates were then boiled for 5 minutes and cleared by centrifugation (13,000 rpm, 10 minutes at 4° C.). Protein concentration was determined using the Bio-Rad DC protein assay. The soluble lysates (10 μg per lane) were subjected to 10% SDS-PAGE, proteins were then transferred to nitrocellulose membranes and blocked with 5% non-fat milk/TBST for 1 h at room temperature. […] Western blots were developed using ECL (Roche Manheim, Germany) and quantified by scanning densitometry.

Assay [1] relates to mitochondrial electron transport complex I. As to the kind of experiment: Mitochondrial complex I protein expression in adipocytes (Western blot). The note with it: 3T3-L1 adipocytes, 48 hrs. It is filed as cell-based, murine. How it is done: Murine 3T3-L1 pre-adipocytes (American Type Culture Collection) were cultured in Dulbecco's Modified Eagle's Medium (DMEM) supplemented with 10% fetal bovine serum and allowed to reach confluence. Differentiation of pre-adipocytes was initiated with 1 μM insulin, 0.25 μM dexamethasone and 0.5 mM 3-isobutyl-1-methylxanthine in DMEM, supplemented with 10% fetal bovine serum. After 48 h, the culture medium was replaced with DMEM supplemented with 10% fetal bovine serum and 1 μM insulin. The culture medium was changed every other day with DMEM containing 10% fetal bovine serum. […] After treatment, cells were washed twice with ice-cold PBS, lysed in sample buffer (62.5 mM Tris-Cl pH 6.8, 2% SDS, 5 mM DTT) at room temperature and vortexed. Cell lysates were then boiled for 5 minutes and cleared by centrifugation (13,000 rpm, 10 minutes at 4° C.). Protein concentration was determined using the Bio-Rad DC protein assay. The soluble lysates (10 μg per lane) were subjected to 10% SDS-PAGE, proteins were then transferred to nitrocellulose membranes and blocked with 5% non-fat milk/TBST for 1 h at room temperature. Membranes were incubated with primary antibodies directed against PPAR-y (1:1000), PGC-1α (1:1000), α-tubulin (1:10 000), Complex I (1:2000), Complex II (1:2000), Complex III (1:2000) and Complex V (1:2000) in 5% milk/TBST at 4° C. overnight. After washing membranes with TBST three times, membranes were incubated with horseradish peroxidase-conjugated secondary antibody for 1 h at room temperature. Western blots were developed using ECL (Roche Manheim, Germany) and quantified by scanning densitometry.

The next assay concerns mice (C57BL/6NCrl). As to the kind of experiment: Maximal running performance on a treadmill (endurance). The format is in vivo. The note with it: olive extract containing 50% hydroxytyrosol, 50, 150 or 300 mg/kg body weight per day by gavage, 3 weeks. From the text: The purpose of the study was to determine the effect of hydroxytyrosol on maximal running performance on a treadmill.
In short, forty mice (C57BL/6NCrl; 8 wks old) were purchased from Charles River (Sulzfeld, Germany) and housed individually with free access to water and feed, with an alternating 12-hour light-dark cycle. The animals were fed a standard rodent diet (Ssniff R/M-H, Ext. n° V1536, Ssniff Ltd., Soest, Germany). After 2 weeks of adaptation to the diet the mice were randomized according to body weight into four experimental groups of 10 animals. The four groups were treated orally every morning for 3 weeks with either water (control group) or with an olive extract diluted to 0.2 ml with water and containing 50% hydroxytyrosol at doses of 50, 150, or 300 mg/kg body weight per day. There was no difference in feed consumption over the whole experiment. After 3 weeks of treatment the maximal running distance on a treadmill was measured. Statistical significance of the mean differences between dietary groups was tested by one-way analysis of variance (ANOVA). If significant differences were found, the Dunnett's test for multiple comparison was used to compare each group to the control group. P values less than 0.05 were considered significant.

`OCCc1ccc(O)c(O)c1` [hydroxytyrosol, 3,4-dihydroxyphenylethanol]: the “PGC-1α protein expression (PGC-1α:α-tubulin ratio, vs. control)” value with PGC-1α is on record as 205±52%. The “mitochondrial electron transport complex I protein (vs. control)” value is 131±16% in assay [1] (0.1 μM, p<0.05); 163±31% in assay [1] (1.0 μM, p<0.01); 138±21% in assay [1] (10.0 μM, p<0.05). The increase of endurance entry in the assay with mice (C57BL/6NCrl) was “up to 50%”.
